Assay results reported in patent EP4782453A1 (Beyang Therapeutics Co., Ltd., priority 2023, dated 2025).
Where two headings read alike, the source gives them in different places.

Molecular target: T1, Menin-MLL (Homo sapiens, UniProt O00255)
T1 construct: His-Menin (M1-L615 end); purchased BIORTUS BP9210
T1 sequence (O00255 1-615 isoform O00255-1): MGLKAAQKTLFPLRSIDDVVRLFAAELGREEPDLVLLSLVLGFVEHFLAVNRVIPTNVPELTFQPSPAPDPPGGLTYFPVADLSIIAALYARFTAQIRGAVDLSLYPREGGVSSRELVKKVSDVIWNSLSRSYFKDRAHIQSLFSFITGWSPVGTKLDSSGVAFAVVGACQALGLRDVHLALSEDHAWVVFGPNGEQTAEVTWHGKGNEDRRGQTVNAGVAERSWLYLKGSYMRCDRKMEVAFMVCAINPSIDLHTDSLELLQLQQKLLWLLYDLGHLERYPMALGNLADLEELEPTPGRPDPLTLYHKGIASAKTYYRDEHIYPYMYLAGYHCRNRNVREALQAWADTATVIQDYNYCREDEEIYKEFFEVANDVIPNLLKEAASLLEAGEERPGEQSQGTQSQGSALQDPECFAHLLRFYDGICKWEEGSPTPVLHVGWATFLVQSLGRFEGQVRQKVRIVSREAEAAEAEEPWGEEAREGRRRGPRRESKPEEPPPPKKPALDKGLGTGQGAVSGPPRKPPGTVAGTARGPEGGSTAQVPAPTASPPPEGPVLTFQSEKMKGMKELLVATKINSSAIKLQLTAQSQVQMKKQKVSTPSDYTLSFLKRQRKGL
Test: Inhibitory activity against Menin-MLL binding (fluorescence polarization)
Details: 150 nM His-Menin, 15 nM FITC-MLL, 25°C for 60 min
Method in brief: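 Fluorescence polarization competition: compound and 150 nM His-tagged menin (residues M1-L615) sit 15 min at 25 °C in pH 7.5 HEPES buffer with NaCl, DTT and BSA; 15 nM FITC-labelled MLL peptide then binds for 60 min. IC50 fitted sigmoidally from mP values, duplicate wells.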

[1] = Menin-MLL IC50, fluorescence polarization
[2] = fluorescence polarization, read-out: Menin-MLL IC50

IC50 [2] | Structure (SMILES) | other results
 | CCS(=O)(=O)N(C)[C@H]1CC[C@H](CN2CC(c3cc(-c4ccc(F)cc4C(=O)N4CCOC[C@H]4C)c4cnn(C)c4c3)C2)CC1 [Example 174, N-methyl-N-[(1r,4r)-4-{[3-(4-{4-fluoro-2-[(3R)-3-methylmorpholin-4-carbonyl]phenyl}-1-methyl-1H-indazol-6-yl)azacyclobutan-1-yl]methyl}cyclohexyl]ethan-1-sulfonamide] | IC50 [1]: 125 nM
 | CCS(=O)(=O)N[C@H]1CC[C@H](CC(C)N2CC(c3cc(-c4ccc(F)cc4C(=O)N4CCOC[C@H]4C)c4cnn(C)c4c3)C2)CC1 (stereo partly drawn) [Example 175, N-[(1r,4r)-4-{2-[3-(4-{4-fluoro-2-[(3R)-3-methylmorpholin-4-carbonyl]phenyl}-1-methyl-1H-indazol-6-yl)azacyclobutan-1-yl]propyl}cyclohexyl]ethan-1-sulfonamide] | IC50 [1]: 138 nM
424 nM | CC(C)CS(=O)(=O)N1CCC(CN2CC(c3cc(-c4ccc(F)cc4C(=O)N4CCOC[C@H]4C)c4cnn(C)c4c3)C2)CC1 [Example 176] | 
217 nM | CC(=O)N1CCC(CN2CC(c3cc(-c4ccc(F)cc4C(=O)N4CCOC[C@H]4C)c4cnn(C)c4c3)C2)CC1 [Example 177] | 
 | CCS(=O)(=O)N[C@H]1CC[C@H](C(C)N2CC(c3cc(-c4ccc(F)cc4C(=O)N4CCOC[C@H]4C)c4cnn(C)c4c3)C2)CC1 (stereo partly drawn) [Example 178, N-[(1r,4r)-4-{1-[3-(4-{4-fluoro-2-[(3R)-3-methylmorpholin-4-carbonyl]phenyl}-1-methyl-1H-indazol-6-yl)azacyclobutan-1-yl]ethyl}cyclohexyl]ethan-1-sulfonamide] | IC50 [1]: 115 nM
89 nM | COCCN(C)CCCC(C(C)C)N1CC(Cc2cc(-c3ccc(F)cc3C(=O)N3CCOC[C@H]3C)c3cnn(C)c3c2)C1 (stereo partly shown) [Example 179] | 
22 nM | COCCN(C)CCCC(C(C)C)N1CC(c2cc(-c3ccc(F)cc3C(=O)N(CC(F)F)C(C)C)c3cnn(C)c3c2)C1 (stereo not shown) [Example 180] | 
621 nM | COC1CCN(CCC[C@@H](C(C)C)N2CC(c3cc(-c4ccc(F)cc4C(=O)N4CCOC[C@H]4C)c4cnn(C)c4c3)C2)CC1 [Example 181-1, 4-{4-fluoro-2-[(3R)-3-methylmorpholin-4-carbonyl]phenyl}-6-{1-[(3S)-6-(4-methoxypiperidin-1-yl)-2-methylhexan-3-yl]azacyclobutan-3-yl}-1-methyl-1H-indazole] | 
507 nM | COCC1CN(CCC[C@@H](C(C)C)N2CC(c3cc(-c4ccc(F)cc4C(=O)N4CCOC[C@H]4C)c4cnn(C)c4c3)C2)C1 [Example 183-1] | 
805 nM | CO[C@H]1CCN(CCC[C@@H](C(C)C)N2CC(c3cc(-c4ccc(F)cc4C(=O)N4CCOC[C@H]4C)c4cnn(C)c4c3)C2)C1 [Example 184-1] | 
262 nM | COCCN(C)CCC[C@@H](C(C)C)N1CC(c2cc(-c3ccc(F)cc3C(=O)N3[C@H](C)COC[C@H]3C)c3cnn(C)c3c2)C1 [Example 186-1, [(4S)-4-[3-(4-{2-[(3R,5R)-3,5-dimethylmorpholin-4-carbonyl]-4-fluorophenyl}-1-methyl-1H-indazol-6-yl)azacyclobutan-1-yl]-5-methylhexyl](2-methoxyethyl)methylamine] | 
 | CCS(=O)(=O)N[C@H]1CC[C@@H](CN2CC(c3cc(-c4ccc(F)cc4C(=O)N4[C@H](C)COC[C@H]4C)c4c(F)nc(C)n4c3)C2)CC1 [Example 198, N-[(1s,4s)-4-{[3-(8-{2-[(3R,5R)-3,5-dimethylmorpholin-4-carbonyl]-4-fluorophenyl}-1-fluoro-3-methylimidazo[1,5-a]pyridin-6-yl)azacyclobutan-1-yl]methyl}cyclohexyl]ethan-1-sulfonamide] | IC50 (read-out: Menin-MLL IC50, fluorescence polarization): 4 nM
26 nM | Cc1nc(F)c2c(-c3ccc(F)cc3C(=O)N3CCOC[C@H]3C)cc(C3CN([C@H](CCCN4CCOCC4)C(C)C)C3)cn12 [Example 199-1, (3R)-4-[5-fluoro-2-(1-fluoro-3-methyl-6-{1-[(3R)-2-methyl-6-(morpholin-4-yl)hexan-3-yl]azacyclobutan-3-yl}imidazo[1,5-a]pyridin-8-yl)benzoyl]-3-methylmorpholine] | 
205 nM | Cc1nc(F)c2c(-c3ccc(F)cc3C(=O)N3CCOC[C@H]3C)cc(C3CN([C@@H](CCCN4CCOCC4)C(C)C)C3)cn12 [Example 199-2, (3R)-4-[5-fluoro-2-(1-fluoro-3-methyl-6-{1-[(3S)-2-methyl-6-(morpholin-4-yl)hexan-3-yl]azacyclobutan-3-yl}imidazo[1,5-a]pyridin-8-yl)benzoyl]-3-methylmorpholine] | 
75 nM | COCCN(C)CCC[C@@H](C(C)C)N1CC(c2cc(-c3ccc(F)cc3C(=O)N3CCOC[C@H]3C)c3c(F)nc(C)n3c2)C1 [Example 200-2] | 
56 nM | COC1CCN(CCCC(C(C)C)N2CC(c3cc(-c4ccc(F)cc4C(=O)N4CCOCC4C)c4c(F)nc(C)n4c3)C2)C1 (stereo not shown) [Example 201-2] | 
111 nM | Cc1nc(F)c2c(-c3ccc(F)cc3C(=O)N3CCOC[C@H]3C)cc(C3CN(C[C@H]4CC[C@H](c5ncno5)CC4)C3)cn12 [Example 207-1, (3R)-4-{5-fluoro-2-[1-fluoro-3-methyl-6-(1-{[(1r,4r)-4-(1,2,4-oxadiazol-5-yl)cyclohexyl]methyl}azacyclobutan-3-yl)imidazo[1,5-a]pyridin-8yl]benzoyl}-3-methylmorpholine] | 
269 nM | Cc1nc(F)c2c(-c3ccc(F)cc3C(=O)N3CCOC[C@H]3C)cc(C3CN(C[C@H]4CC[C@@H](c5ncno5)CC4)C3)cn12 [Example 207-2, (3R)-4-{5-fluoro-2-[1-fluoro-3-methyl-6-(1-{[(1s,4s)-4-(1,2,4-oxadiazol-5-yl)cyclohexyl]methyl}azacyclobutan-3-yl)imidazo[1,5-a]pyridin-8yl]benzoyl}-3-methylmorpholine] | 
167 nM | Cc1nc(F)c2c(-c3ccc(F)cc3C(=O)N3[C@H](C)COC[C@H]3C)cc(C3CN(CC4(O)CCOCC4)C3)cn12 [Example 220, 4-{[3-(8-{2-[(3R,5R)-3,5-dimethylmorpholin-4-carbonyl]-4-fluorophenyl}-1-fluoro-3-methylimidazo[1,5-a]pyridin-6-yl)azacyclobutan-1-yl]methyl}oxacyclohexan-4-ol] | 
57 nM | Cc1nc(F)c2c(-c3ccc(F)cc3C(=O)N3[C@H](C)COC[C@H]3C)cc(CC3CN(CC4CCOCC4)C3)cn12 [Example 229] | 
42 nM | Cc1nc(F)c2c(-c3ccc(F)cc3C(=O)N3[C@H](C)COC[C@H]3C)cc(C3CN(CC4CCN(C(=O)c5cnoc5)CC4)C3)cn12 [Example 233] | 
49.5 nM | Cc1nc(F)c2c(-c3ccc(F)cc3C(=O)N3CCOC[C@H]3C)cc(C3CN(CC4CCCOC4)C3)cn12 (stereo partly shown) [Example 235] | 
180 nM | COC1(CN2CC(c3cc(-c4ccc(F)cc4C(=O)N4CCOC[C@H]4C)c4c(F)nc(C)n4c3)C2)CCOCC1 [Example 236] | 
 | CNC(=O)[C@H]1CC[C@H](CN2CC(c3cc(-c4ccc(F)cc4C(=O)N4CCOC[C@H]4C)c4c(F)nc(C)n4c3)C2)CC1 [Example 237, (1r,4r)-4-{[3-(1-fluoro-8-{4-fluoro-2-[(3R)-3-methylmorpholin-4-carbonyl]phenyl}-3-methylimidazo[1,5-a]pyridin-6-yl)azacyclobutan-1-yl]methyl}-N-methylcyclohexan-1-formamide] | IC50 [1]: 34 nM

Structure (SMILES) | IC50 [2] | other results
CC(=O)N1CCC(CN2CC(Cc3cc(-c4ccc(F)cc4C(=O)N4[C@H](C)COC[C@H]4C)c4c(F)nc(C)n4c3)C2)CC1 [Example 228] | 130 nM | 
